In US6699989B1, “Antiviral and antimicrobial guanidine or biguanidine derivatives” (priority 2000, dated 2004):
≈ marks a conversion by molar mass, not a printed value. Like-named read-outs stand apart in the source and are kept apart here.

Columns and labels:
HIV-1 [1] = tested on: HIV-1
Description: (§3) This is a cytoprotection assay that uses the T-lymphoblastoid tumor cell line CEM-SS and laboratory adapted strains of HIV-1. Upon infection with HIV, the CEM-SS cells form syncytia and eventually die, producing large amounts of progeny virus over the course of 4-6 days at the standard multiplicity of infection (0.01). The antiviral assay measures the ability of a given compound to inhibit the HIV-induced cell killing. […] The activity of the compound is evaluated by measuring cell viability at 6 days post-infection and comparing the viability to that obtained in cell control (cells only), virus control (cells and virus only) and toxicity control (cells and compound only) wells.
(§4) Efficacy of the compound in cell culture is measured by increased cell viability in CEM-SS assays or reduction in virus production in PBMC assays. The data obtained yields a dose response curve which can be evaluated to determine doses which yield 25%, 50% and 95% protection from HIV-induced cell killing or virus production. […] These concentrations are reported as the TC25, TC50 and TC95 values. The ratio of toxicity to efficacy constitutes the therapeutic index TC50/IC50.
(§5) CEM-SS cells assay measures the ability of the compound to inhibit HIV induced cell killing. The cells are stained at 6 days post-infection with the tetrazolium dye XTT which is converted to a colored formazan product by the mitochondria of viable cells. Protection from cell killing afforded by the test compound is measured by comparison to both cell controls and virus controls. Cell killing in this system is directly related to the amount of virus produced by the infected cells and XTT-formazan production is proportional to the number of viable cells in each well. Toxicity of the compound to the target cells is measured in parallel.
(§6) CEM-SS cells (or other established human cell line used in these experiments) were passaged in T-150 flasks for use in the assay. On the day preceding the assay, the cells were split 1:2 to assure they would be in an exponential growth phase at time of infection. On the day of assay the cells were washed twice with tissue culture medium and resuspended in fresh tissue culture medium. Total cell and viability counting was performed using hemacytometer and trypan blue dye exclusion. Cell viability was greater than 95% for the cells to be utilized in the assay. The cells were pelleted and resuspended at 2.5×10^4 cells per ml in tissue culture medium. Cells were added to the drug-containing plates in a volume of 50 μl.
(§7) A pretitered aliquot of virus was removed from the freezer (−80° C.) and allowed to thaw slowly to room temperature in a biological safety cabinet. The virus was resuspended and diluted into tissue culture medium such that the amount of virus added to each well in a volume of 50 μl will be the amount determined to give complete cell killing at 6 days post-infection. In general the virus pools produced with the IIIB isolate of HIV required the addition of 5 μl of virus per well.
(§8) Each plate contained cell control wells (cells only), virus control wells (cells plus virus), drug toxicity control wells (cells plus drug only), drug colorimetric control wells (drug only) as well as experimental wells (drug plus cells plus virus).
(§9) After 6 days of incubation at 37° C. in a 5% CO2 incubator the test plates were analyzed by staining with the tetrazolium dye XTT. XTT-tetrazolium is metabolized by the mitochondrial enzymes of metabolically active cells to a soluble formazan product, allowing the rapid quantitative analysis of the inhibition of HIV-induced cell killing by anti-HIV test substances. On day 6 post-infection plates were removed from the incubator and observed.

PBMCs = experiment: Toxicity to PBMC, XTT; format: cell-based, human
[2] = tested on: Pseudomonas aeruginosa ATCC 15442; experiment: Microdilution broth MIC assay; format: cell-based; details: ATCC15442, Pa, Mueller Hinton broth, about 17 hr
Description: (§1) Test organisms. The test organisms are listed in Table 5 along with their source. Prior to assay, overnight bacterial slant cultures were used to inoculate Mueller Hinton broth followed by incubation for 5-7 hr. Each culture was then standardized turbidimetrically to a viable count of about 10^6 colony forming units/ml and used to inoculate the mirotiter assay plates. The viable count after addition to the plates was about 5×10^5 CFU/ml.
(§2) Experimental design. The MIC of the test compounds for the bacterial strains was determined with a microdilution broth assay in 96 well microtiter plates. The test compounds were dissolved in DMSO and then diluted 10-fold in assay medium (Mueller Hinton broth) to obtain final concentrations of 0.128, 1.28, 12.8, and 128 μg/ml. A viability control containing DMSO, diluted in the same manner as the test compounds, was used to confirm that the DMSO was not inhibitory by itself. Trimethoprim (TMP) was used as a positive drug control. The assay plates were incubated at 37° C. for about 17 hr and each assay well observed visually for growth. The MIC was determined at the lowest concentration of drug which inhibited growth. [drawing 32]

[3] = tested on: Proteus mirabilis ATCC 9921; experiment: Microdilution broth MIC assay; format: cell-based; details: ATCC9921, Pm, Mueller Hinton broth, about 17 hr
Description: as §1, §2

[4] = tested on: Staphylococcus epidermidis ATCC 35984; experiment: Microdilution broth MIC assay; format: cell-based; details: ATCC35984, Se, Mueller Hinton broth, about 17 hr
Description: as §1, §2

[5] = tested on: Escherichia coli ATCC 11229; experiment: Microdilution broth MIC assay; format: cell-based; details: ATCC11229, Ec, Mueller Hinton broth, about 17 hr
Description: as §1, §2

[6] = tested on: Streptococcus pneumoniae ATCC 6303; experiment: Microdilution broth MIC assay; format: cell-based; details: ATCC6303, Sp, Mueller Hinton broth, about 17 hr
Description: as §1, §2

[7] = tested on: Staphylococcus aureus ATCC 6538; experiment: Microdilution broth MIC assay; format: cell-based; details: ATCC6538, Sa, Mueller Hinton broth, about 17 hr
Description: as §1, §2

[8] = tested on: Klebsiella pneumoniae ATCC 4352; experiment: Microdilution broth MIC assay; format: cell-based; details: ATCC4352, Kp, Mueller Hinton broth, about 17 hr
Description: as §1, §2

HIV-1 [9] = experiment: microbe, parasite or virus in culture; details: Human immunodeficiency virus 1, CEM-SS
Description: as §3, §4, §5, §6, §7, §8, §9

N=C(NCCCCCCNC(=N)NC(=N)N1CCN(c2cc3c(cc2F)c(=O)c(C(=O)O)cn3C2CC2)CC1)NC(=N)N1CCN(c2cc3c(cc2F)c(=O)c(C(=O)O)cn3C2CC2)CC1 [BVS-10A]
% RED. IN VIRAL CPE (HIV-1 [1]; 0.00032 uG/mL, CEM-SS, HIV1 RF): 3% | ANTIVIRAL TEST VALUES MEAN O.D. (HIV-1 [1]; 0.00032 uG/mL, CEM-SS, HIV1 RF): 0.038 O.D. | % RED. IN VIRAL CPE (HIV-1 [1]; 0.001 uG/mL, CEM-SS, HIV1 RF): 4% | ANTIVIRAL TEST VALUES MEAN O.D. (HIV-1 [1]; 0.001 uG/mL, CEM-SS, HIV1 RF): 0.049 O.D. | % RED. IN VIRAL CPE (HIV-1 [1]; 0.0032 uG/mL, CEM-SS, HIV1 RF): 1% | ANTIVIRAL TEST VALUES MEAN O.D. (HIV-1 [1]; 0.0032 uG/mL, CEM-SS, HIV1 RF): 0.009 O.D. | % RED. IN VIRAL CPE (HIV-1 [1]; 0.01 uG/mL, CEM-SS, HIV1 RF): 4% | ANTIVIRAL TEST VALUES MEAN O.D. (HIV-1 [1]; 0.01 uG/mL, CEM-SS, HIV1 RF): 0.042 O.D. | % RED. IN VIRAL CPE (HIV-1 [1]; 0.032 uG/mL, CEM-SS, HIV1 RF): 7% | ANTIVIRAL TEST VALUES MEAN O.D. (HIV-1 [1]; 0.032 uG/mL, CEM-SS, HIV1 RF): 0.083 O.D. | % RED. IN VIRAL CPE (HIV-1 [1]; 0.1 uG/mL, CEM-SS, HIV1 RF): 2% | ANTIVIRAL TEST VALUES MEAN O.D. (HIV-1 [1]; 0.1 uG/mL, CEM-SS, HIV1 RF): 0.021 O.D. | % RED. IN VIRAL CPE (HIV-1 [1]; 0.32 uG/mL, CEM-SS, HIV1 RF): 4% | ANTIVIRAL TEST VALUES MEAN O.D. (HIV-1 [1]; 0.32 uG/mL, CEM-SS, HIV1 RF): 0.051 O.D. | % RED. IN VIRAL CPE (HIV-1 [1]; 1 uG/mL, CEM-SS, HIV1 RF): 9% | ANTIVIRAL TEST VALUES MEAN O.D. (HIV-1 [1]; 1 uG/mL, CEM-SS, HIV1 RF): 0.103 O.D. | % RED. IN VIRAL CPE (HIV-1 [1]; 3.2 uG/mL, CEM-SS, HIV1 RF): 2% | ANTIVIRAL TEST VALUES MEAN O.D. (HIV-1 [1]; 3.2 uG/mL, CEM-SS, HIV1 RF): 0.025 O.D. | % RED. IN VIRAL CPE (HIV-1 [1]; 10 uG/mL, CEM-SS, HIV1 RF): 11% | ANTIVIRAL TEST VALUES MEAN O.D. (HIV-1 [1]; 10 uG/mL, CEM-SS, HIV1 RF): 0.123 O.D. | % RED. IN VIRAL CPE (HIV-1 [1]; 32 uG/mL, CEM-SS, HIV1 RF): 100% | ANTIVIRAL TEST VALUES MEAN O.D. (HIV-1 [1]; 32 uG/mL, CEM-SS, HIV1 RF): 1.515 O.D. | % RED. IN VIRAL CPE (HIV-1 [1]; 32 uG/mL, CEM-SS, HIV1 RF, listed as BVS10A): 100% | % RED. IN VIRAL CPE (HIV-1 [1]; 100 uG/mL, CEM-SS, HIV1 RF): 100% | ANTIVIRAL TEST VALUES MEAN O.D. (HIV-1 [1]; 100 uG/mL, CEM-SS, HIV1 RF): 1.717 O.D. | % RED. IN VIRAL CPE (HIV-1 [1]; 100 uG/mL, CEM-SS, HIV1 RF, listed as BVS10A): 100% | IC95 (HIV-1 [1]; CEM-SS cells): 30 µg/mL (≈ 32.9 µM) | IC 25% (HIV-1 [1]; CEM-SS, HIV1 RF): 12.00 UG/mL | IC 95% (HIV-1 [1]; CEM-SS, HIV1 RF): 30.00 UG/mL | TOXICITY % CC (PBMCs; 0.01 μg/ml, PBMC): 103.2% | TOXICITY VALUES (XTT O.D. @ 450/650 nm) MEAN (PBMCs; 0.01 μg/ml, PBMC): 3.415 O.D. | TOXICITY % CC (PBMCs; 0.032 μg/ml, PBMC): 103.6% | TOXICITY VALUES (XTT O.D. @ 450/650 nm) MEAN (PBMCs; 0.032 μg/ml, PBMC): 3.426 O.D. | TOXICITY % CC (PBMCs; 0.1 μg/ml, PBMC): 97.1% | TOXICITY VALUES (XTT O.D. @ 450/650 nm) MEAN (PBMCs; 0.1 μg/ml, PBMC): 3.214 O.D. | TOXICITY % CC (PBMCs; 0.32 μg/ml, PBMC): 100.9% | TOXICITY VALUES (XTT O.D. @ 450/650 nm) MEAN (PBMCs; 0.32 μg/ml, PBMC): 3.339 O.D. | TOXICITY % CC (PBMCs; 1 μg/ml, PBMC): 96.2% | TOXICITY VALUES (XTT O.D. @ 450/650 nm) MEAN (PBMCs; 1 μg/ml, PBMC): 3.181 O.D. | TOXICITY % CC (PBMCs; 3.2 μg/ml, PBMC): 103.5% | TOXICITY VALUES (XTT O.D. @ 450/650 nm) MEAN (PBMCs; 3.2 μg/ml, PBMC): 3.424 O.D. | TOXICITY % CC (PBMCs; 10 μg/ml, PBMC): 108.3% | TOXICITY VALUES (XTT O.D. @ 450/650 nm) MEAN (PBMCs; 10 μg/ml, PBMC): 3.583 O.D. | TOXICITY % CC (PBMCs; 32 μg/ml, PBMC): 97.3% | TOXICITY VALUES (XTT O.D. @ 450/650 nm) MEAN (PBMCs; 32 μg/ml, PBMC): 3.220 O.D. | TOXICITY % CC (PBMCs; 100 μg/ml, PBMC): 51.2% | TOXICITY VALUES (XTT O.D. @ 450/650 nm) MEAN (PBMCs; 100 μg/ml, PBMC): 1.695 O.D. | 50% inhibition of cell growth (PBMCs; PBMC cultures): approximately 100 μg/mL | TC50 (PBMCs; PBMC, XTT): TC50 (μg/ml) = >100 | toxicity in PBMCs (PBMCs; at 100 μg/mL): Toxicity was detected | MIC [2]: 1.28 to 12.8 µg/mL (≈ 1.4 to 14 µM) | MIC [3]: 0.128 to 1.28 µg/mL (≈ 0.14 to 1.4 µM) | MIC [4]: < 0.128 µg/mL | MIC [5]: 0.128 to 1.28 µg/mL (≈ 0.14 to 1.4 µM) | MIC [6]: 1.28 to 12.8 µg/mL (≈ 1.4 to 14 µM) | MIC [7]: < 0.128 µg/mL | MIC [8]: < 0.128 µg/mL | IC50 (HIV-1 [9]): 16.6 µg/mL (≈ 18.2 µM) | IC50 (HIV-1 [9]; read-out: 50% inhibition of cell killing): 12 µg/mL (≈ 13.1 µM) | IC50 (HIV-1 [9]; read-out: calculated IC50): 16.6 µg/mL (≈ 18.2 µM)
